Paper PMC11183114, “Structural basis of S-adenosylmethionine-dependent allosteric transition from active to inactive states in methylenetetrahydrofolate reductase” (Nature Communications, 2024)
Substitutions are numbered along the chain they refer to. Read-outs that look alike come from different tables or passages of the source.

What was measured:
[1] = molecular target: T1, methylenetetrahydrofolate reductase (cMTHFR) (Thermochaetoides thermophila, UniProt G0S5U9, E21Q/L393M/V516F); experiment: X-ray crystal structure, […] Å (R-state); type: binding
T1 construct: gene CTHT_0033700; cMTHFR^E21Q, L393M, V516F, surface lysines reductively methylated
T1 sequence (G0S5U9 1-614 E21Q/L393M/V516F): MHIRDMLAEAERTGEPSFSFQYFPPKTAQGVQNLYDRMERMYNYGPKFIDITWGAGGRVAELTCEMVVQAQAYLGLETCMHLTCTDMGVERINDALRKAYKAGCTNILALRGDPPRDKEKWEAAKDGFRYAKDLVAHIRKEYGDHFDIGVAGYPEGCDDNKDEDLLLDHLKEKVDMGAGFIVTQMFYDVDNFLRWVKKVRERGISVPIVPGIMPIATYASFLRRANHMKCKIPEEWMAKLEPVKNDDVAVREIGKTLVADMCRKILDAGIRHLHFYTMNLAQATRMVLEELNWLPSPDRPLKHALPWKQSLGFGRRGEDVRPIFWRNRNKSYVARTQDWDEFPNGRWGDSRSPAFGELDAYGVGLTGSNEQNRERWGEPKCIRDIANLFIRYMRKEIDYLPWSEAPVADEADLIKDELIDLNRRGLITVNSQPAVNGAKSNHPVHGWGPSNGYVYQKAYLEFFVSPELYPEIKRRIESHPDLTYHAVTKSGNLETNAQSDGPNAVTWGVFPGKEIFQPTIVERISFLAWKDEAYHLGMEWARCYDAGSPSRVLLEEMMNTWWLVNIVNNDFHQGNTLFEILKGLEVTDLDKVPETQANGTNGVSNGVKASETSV

[2] = molecular target: T2, methylenetetrahydrofolate reductase (cMTHFR) (Thermochaetoides thermophila, UniProt G0S5U9, R315A); experiment: X-ray crystal structure, […] Å (T-state); type: binding; set-up: gene CTHT_0033700; cMTHFR^R315A
T2 sequence (G0S5U9 1-614 R315A): T1 sequence (G0S5U9 1-614 E21Q/L393M/V516F) with Q21E, R315A, M393L, F516V

[3] = molecular target: T3, methylenetetrahydrofolate reductase (cMTHFR) (Thermochaetoides thermophila, UniProt G0S5U9); experiment: NADH-menadione oxidoreductase assay, purified enzyme ([…] NADH); type: biochemical
T3 construct: gene CTHT_0033700; cMTHFR^wt
T3 sequence (G0S5U9 1-614): T1 sequence (G0S5U9 1-614 E21Q/L393M/V516F) with Q21E, M393L, F516V

[4] = molecular target: T3, methylenetetrahydrofolate reductase (cMTHFR); experiment: UV-Vis titration (FAD absorbance quench at […] nm, Hill fit, coefficient […]); […] also inhibits NADPH-menadione oxidoreductase activity by […]; type: binding
[5] = molecular target: T2, methylenetetrahydrofolate reductase (cMTHFR); experiment: X-ray crystal structure, […] Å (T-state); type: binding; set-up: gene CTHT_0033700; cMTHFR^R315A, homodimer; two AdoMet per regulatory domain
Source text: Unexpectedly, two molecules of AdoMet were found

[6] = molecular target: T3, methylenetetrahydrofolate reductase (cMTHFR); experiment: NADPH-menadione oxidoreductase assay, purified enzyme ([…] NADPH); type: biochemical

## Cc1cc2nc3c(=O)[nH]c(=O)nc-3n(C[C@H](O)[C@H](O)[C@H](O)COP(=O)(O)OP(=O)(O)OC[C@H]3O[C@@H](n4cnc5c(N)ncnc54)[C@H](O)[C@@H]3O)c2cc1C [FAD]
[1]
  X-ray crystal structure, 3.4 Å (R-state): Electron density for FAD was observed in every catalytic active site.
[2]
  X-ray crystal structure, 2.8 Å (T-state): the si-face of FAD is occluded by Tyr361 on the C-terminal region of the linker, which forms a π-stacking interaction

## NC(=O)C1=CN([C@@H]2O[C@H](COP(=O)(O)OP(=O)(O)OC[C@H]3O[C@@H](n4cnc5c(N)ncnc54)[C@H](O)[C@@H]3O)[C@@H](O)[C@H]2O)C=CC1 [NADH]
[3]
  NADH-menadione oxidoreductase assay, purified enzyme (100 μM NADH): 44 µM/min

## C[S@@+](CC[C@H](N)C(=O)[O-])C[C@H]1O[C@@H](n2cnc3c(N)ncnc32)[C@H](O)[C@@H]1O [AdoMet]
[4]
  Kd: ~18.8 µM
[5]
  X-ray crystal structure, 2.8 Å (T-state): The regulatory domain was found to bind AdoMet, as expected for the T-state. Unexpectedly, two molecules of AdoMet were found

## NC(=O)C1=CN([C@@H]2O[C@H](COP(=O)(O)OP(=O)(O)OC[C@H]3O[C@@H](n4cnc5c(N)ncnc54)[C@H](OP(=O)(O)O)[C@@H]3O)[C@@H](O)[C@H]2O)C=CC1 [NADPH]
[6]
  NADPH-menadione oxidoreductase assay, purified enzyme (100 μM NADPH): 120 µM/min
